In ChEMBL document CHEMBL1201862, “PubChem BioAssay data set” (2004):
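Following 48 hours of exposure in 96-well plates, responses at five concentrations were used to interpolate endpoints linearly. GI50 marks 50% less growth.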 Active and inactive are the calls of the source. No stated cut-off is given here; in the data, active = GI50 up to about 1.1 µM and inactive = higher.

How the values were obtained:
Test in all cases: inhibition of tumour cell growth, NCI panel, 48 h
CCRF-CEM = tested on: CCRF-CEM
MDA-MB-435 = tested on: MDA-MB-435
COLO 205 = tested on: COLO 205
U-251 = tested on: U-251
HL-60 = tested on: HL-60
SNB-19 = tested on: SNB-19
A498 = tested on: A498
K562 = tested on: K562
Malme-3M = tested on: Malme-3M
SK-MEL-28 = tested on: SK-MEL-28
NCI/ADR-RES = tested on: NCI/ADR-RES
CAKI-1 = tested on: CAKI-1
Hs-578T = tested on: Hs-578T
786-0 = tested on: 786-0
TK-10 = tested on: TK-10
BT-549 = tested on: BT-549
LOX IMVI = tested on: LOX IMVI
NCI-H522 = tested on: NCI-H522
MDA-MB-231 = tested on: MDA-MB-231
NCI-H226 = tested on: NCI-H226
KM12 = tested on: KM12
OVCAR-4 = tested on: OVCAR-4
HCT-15 = tested on: HCT-15
SK-OV-3 = tested on: SK-OV-3
SF-539 = tested on: SF-539
UO-31 = tested on: UO-31
ACHN = tested on: ACHN
MCF7 = tested on: MCF7
EKVX = tested on: EKVX
UACC-257 = tested on: UACC-257
OVCAR-8 = tested on: OVCAR-8
M14 = tested on: M14
OVCAR-3 = tested on: OVCAR-3
MDA-N = tested on: MDA-N
SW-620 = tested on: SW-620
SK-MEL-5 = tested on: SK-MEL-5
SF-268 = tested on: SF-268
SNB-75 = tested on: SNB-75
SK-MEL-2 = tested on: SK-MEL-2
MOLT-4 = tested on: MOLT-4
HCT-116 = tested on: HCT-116
RPMI-8226 = tested on: RPMI-8226
SN12C = tested on: SN12C
UACC-62 = tested on: UACC-62
HOP-92 = tested on: HOP-92
HOP-62 = tested on: HOP-62
RXF 393 = tested on: RXF 393
NCI-H460 = tested on: NCI-H460
HT-29 = tested on: HT-29
OVCAR-5 = tested on: OVCAR-5
NCI-H23 = tested on: NCI-H23
DU-145 = tested on: DU-145
IGROV-1 = tested on: IGROV-1
A549 = tested on: A549
T47D = tested on: T47D
SF-295 = tested on: SF-295

Question: `O=C(CC(=O)CC(O)(C(F)(F)F)C(F)(F)F)CC(O)(C(F)(F)F)C(F)(F)F` was tested. Which GI50 (CCRF-CEM) did it give?
Answer: > 10 µM (inactive)

Question: And the GI50 (MDA-MB-435)?
Answer: > 10 µM (inactive)

Question: And the GI50 (COLO 205)?
Answer: > 10 µM (inactive)

Question: What about the GI50 (U-251) of the same compound?
Answer: > 10 µM (inactive)

Question: What about the GI50 (HL-60) of the same compound?
Answer: > 10 µM (inactive)

Question: And the GI50 (SNB-19)?
Answer: > 10 µM (inactive)

Question: What about the GI50 (A498) of the same compound?
Answer: > 10 µM (inactive)

Question: What about the GI50 (K562) of the same compound?
Answer: > 10 µM (inactive)

Question: What about the GI50 (Malme-3M) of the same compound?
Answer: > 10 µM (inactive)

Question: And the GI50 (SK-MEL-28)?
Answer: > 10 µM (inactive)

Question: And the GI50 (NCI/ADR-RES)?
Answer: > 10 µM (inactive)

Question: What about the GI50 (CAKI-1) of the same compound?
Answer: > 10 µM (inactive)

Question: And the GI50 (Hs-578T)?
Answer: > 10 µM (inactive)

Question: What about the GI50 (786-0) of the same compound?
Answer: > 10 µM (inactive)

Question: What about the GI50 (TK-10) of the same compound?
Answer: > 10 µM (inactive)

Question: And the GI50 (BT-549)?
Answer: > 10 µM (inactive)

Question: And the GI50 (LOX IMVI)?
Answer: > 10 µM (inactive)

Question: What about the GI50 (NCI-H522) of the same compound?
Answer: > 10 µM (inactive)

Question: And the GI50 (MDA-MB-231)?
Answer: > 10 µM (inactive)

Question: And the GI50 (NCI-H226)?
Answer: > 10 µM (inactive)

Question: What about the GI50 (KM12) of the same compound?
Answer: > 10 µM (inactive)

Question: What about the GI50 (OVCAR-4) of the same compound?
Answer: > 10 µM (inactive)

Question: What about the GI50 (HCT-15) of the same compound?
Answer: > 10 µM

Question: And the GI50 (SK-OV-3)?
Answer: > 10 µM (inactive)

Question: And the GI50 (SF-539)?
Answer: > 10 µM (inactive)

Question: What about the GI50 (UO-31) of the same compound?
Answer: > 10 µM (inactive)

Question: What about the GI50 (ACHN) of the same compound?
Answer: > 10 µM (inactive)

Question: What about the GI50 (MCF7) of the same compound?
Answer: > 10 µM (inactive)

Question: What about the GI50 (EKVX) of the same compound?
Answer: > 10 µM (inactive)

Question: And the GI50 (UACC-257)?
Answer: > 10 µM (inactive)

Question: What about the GI50 (OVCAR-8) of the same compound?
Answer: > 10 µM (inactive)

Question: What about the GI50 (M14) of the same compound?
Answer: > 10 µM (inactive)

Question: And the GI50 (OVCAR-3)?
Answer: > 10 µM (inactive)

Question: What about the GI50 (MDA-N) of the same compound?
Answer: > 10 µM (inactive)

Question: What about the GI50 (SW-620) of the same compound?
Answer: > 10 µM (inactive)

Question: What about the GI50 (SK-MEL-5) of the same compound?
Answer: > 10 µM (inactive)

Question: And the GI50 (SF-268)?
Answer: > 10 µM (inactive)

Question: What about the GI50 (SNB-75) of the same compound?
Answer: > 10 µM (inactive)

Question: What about the GI50 (SK-MEL-2) of the same compound?
Answer: > 10 µM (inactive)

Question: What about the GI50 (MOLT-4) of the same compound?
Answer: > 10 µM (inactive)

Question: What about the GI50 (HCT-116) of the same compound?
Answer: > 10 µM (inactive)

Question: And the GI50 (RPMI-8226)?
Answer: > 10 µM (inactive)

Question: And the GI50 (SN12C)?
Answer: > 10 µM (inactive)

Question: And the GI50 (UACC-62)?
Answer: > 10 µM (inactive)

Question: And the GI50 (HOP-92)?
Answer: 5.75 µM (inactive)

Question: And the GI50 (HOP-62)?
Answer: > 10 µM (inactive)

Question: And the GI50 (RXF 393)?
Answer: > 10 µM (inactive)

Question: And the GI50 (NCI-H460)?
Answer: > 10 µM (inactive)

Question: And the GI50 (HT-29)?
Answer: 8.49 µM (inactive)

Question: And the GI50 (OVCAR-5)?
Answer: > 10 µM (inactive)

Question: And the GI50 (NCI-H23)?
Answer: > 10 µM (inactive)

Question: What about the GI50 (DU-145) of the same compound?
Answer: > 10 µM (inactive)

Question: And the GI50 (IGROV-1)?
Answer: > 10 µM (inactive)

Question: What about the GI50 (A549) of the same compound?
Answer: > 10 µM (inactive)

Question: What about the GI50 (T47D) of the same compound?
Answer: > 10 µM (inactive)

Question: What about the GI50 (SF-295) of the same compound?
Answer: > 10 µM (inactive)
